Experimental data published in US20190135793A1, “HETEROCYCLIC INHIBITORS OF KDM5 FOR THE TREATMENT OF DISEASE” (Board of Regents, The University of Texas System, priority 2017, published 2019).
Read-outs that look alike come from different tables or passages of the source.

How the values were obtained:
[1] = target: T1, KDM4C (Homo sapiens, UniProt Q9H3R0); assay: KDM4C AlphaScreen assay; type: biochemical; conditions: AlphaScreen; full length KDM4C 0.2 nM; biotinylated H3K9Me3 peptide 3 nM; 30 minutes at room temperature
T1 construct: Full length of KDM5B and KDM4C protein were purchased from Active Motif; purchased Active Motif 31858
T1 sequence (Q9H3R0 1-1056): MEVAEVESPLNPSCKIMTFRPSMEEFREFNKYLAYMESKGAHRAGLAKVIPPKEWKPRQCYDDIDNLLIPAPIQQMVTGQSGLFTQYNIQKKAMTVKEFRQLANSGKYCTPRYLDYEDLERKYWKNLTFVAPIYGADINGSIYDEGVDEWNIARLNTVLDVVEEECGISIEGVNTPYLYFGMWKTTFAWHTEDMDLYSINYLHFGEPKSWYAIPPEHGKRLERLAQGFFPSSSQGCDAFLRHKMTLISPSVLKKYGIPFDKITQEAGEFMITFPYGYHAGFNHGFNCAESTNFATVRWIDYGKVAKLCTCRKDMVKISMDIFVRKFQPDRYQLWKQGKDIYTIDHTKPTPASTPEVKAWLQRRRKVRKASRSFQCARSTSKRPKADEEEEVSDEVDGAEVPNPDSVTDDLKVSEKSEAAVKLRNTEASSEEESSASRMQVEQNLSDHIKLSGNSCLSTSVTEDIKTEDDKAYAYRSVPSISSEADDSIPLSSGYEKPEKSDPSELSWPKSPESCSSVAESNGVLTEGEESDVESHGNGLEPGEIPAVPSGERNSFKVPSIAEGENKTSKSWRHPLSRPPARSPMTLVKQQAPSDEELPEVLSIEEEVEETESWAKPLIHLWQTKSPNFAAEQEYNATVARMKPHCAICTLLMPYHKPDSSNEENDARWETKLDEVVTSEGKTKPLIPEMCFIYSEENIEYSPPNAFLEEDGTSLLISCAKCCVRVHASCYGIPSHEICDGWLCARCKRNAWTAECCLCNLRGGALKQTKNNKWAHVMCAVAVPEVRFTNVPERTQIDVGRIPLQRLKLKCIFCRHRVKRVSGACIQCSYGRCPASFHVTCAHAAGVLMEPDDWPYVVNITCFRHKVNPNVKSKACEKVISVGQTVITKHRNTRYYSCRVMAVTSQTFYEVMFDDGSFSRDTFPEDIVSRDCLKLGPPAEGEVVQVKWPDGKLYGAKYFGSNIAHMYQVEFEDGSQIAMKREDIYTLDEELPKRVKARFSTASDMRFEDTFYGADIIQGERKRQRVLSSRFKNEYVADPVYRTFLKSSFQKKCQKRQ
Method in brief: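 Full-length KDM4C (0.2 nM final) was preincubated 15 min at RT with compound in HEPES pH 7.4 with Tween-20, BSA and TCEP. The reaction ran 30 min at RT after adding biotinylated peptide (3 nM final) in buffer with Fe(II), α-ketoglutarate and ascorbate. EDTA-containing AlphaScreen beads stopped it; IC50 was curve-fitted.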

[2] = target: T2, KDM5B (Homo sapiens, UniProt Q9UGL1); assay: biochemical
T2 construct: Full length of KDM5B and KDM4C protein were purchased from Active Motif; purchased Active Motif 31832
T2 sequence (Q9UGL1 whole entry): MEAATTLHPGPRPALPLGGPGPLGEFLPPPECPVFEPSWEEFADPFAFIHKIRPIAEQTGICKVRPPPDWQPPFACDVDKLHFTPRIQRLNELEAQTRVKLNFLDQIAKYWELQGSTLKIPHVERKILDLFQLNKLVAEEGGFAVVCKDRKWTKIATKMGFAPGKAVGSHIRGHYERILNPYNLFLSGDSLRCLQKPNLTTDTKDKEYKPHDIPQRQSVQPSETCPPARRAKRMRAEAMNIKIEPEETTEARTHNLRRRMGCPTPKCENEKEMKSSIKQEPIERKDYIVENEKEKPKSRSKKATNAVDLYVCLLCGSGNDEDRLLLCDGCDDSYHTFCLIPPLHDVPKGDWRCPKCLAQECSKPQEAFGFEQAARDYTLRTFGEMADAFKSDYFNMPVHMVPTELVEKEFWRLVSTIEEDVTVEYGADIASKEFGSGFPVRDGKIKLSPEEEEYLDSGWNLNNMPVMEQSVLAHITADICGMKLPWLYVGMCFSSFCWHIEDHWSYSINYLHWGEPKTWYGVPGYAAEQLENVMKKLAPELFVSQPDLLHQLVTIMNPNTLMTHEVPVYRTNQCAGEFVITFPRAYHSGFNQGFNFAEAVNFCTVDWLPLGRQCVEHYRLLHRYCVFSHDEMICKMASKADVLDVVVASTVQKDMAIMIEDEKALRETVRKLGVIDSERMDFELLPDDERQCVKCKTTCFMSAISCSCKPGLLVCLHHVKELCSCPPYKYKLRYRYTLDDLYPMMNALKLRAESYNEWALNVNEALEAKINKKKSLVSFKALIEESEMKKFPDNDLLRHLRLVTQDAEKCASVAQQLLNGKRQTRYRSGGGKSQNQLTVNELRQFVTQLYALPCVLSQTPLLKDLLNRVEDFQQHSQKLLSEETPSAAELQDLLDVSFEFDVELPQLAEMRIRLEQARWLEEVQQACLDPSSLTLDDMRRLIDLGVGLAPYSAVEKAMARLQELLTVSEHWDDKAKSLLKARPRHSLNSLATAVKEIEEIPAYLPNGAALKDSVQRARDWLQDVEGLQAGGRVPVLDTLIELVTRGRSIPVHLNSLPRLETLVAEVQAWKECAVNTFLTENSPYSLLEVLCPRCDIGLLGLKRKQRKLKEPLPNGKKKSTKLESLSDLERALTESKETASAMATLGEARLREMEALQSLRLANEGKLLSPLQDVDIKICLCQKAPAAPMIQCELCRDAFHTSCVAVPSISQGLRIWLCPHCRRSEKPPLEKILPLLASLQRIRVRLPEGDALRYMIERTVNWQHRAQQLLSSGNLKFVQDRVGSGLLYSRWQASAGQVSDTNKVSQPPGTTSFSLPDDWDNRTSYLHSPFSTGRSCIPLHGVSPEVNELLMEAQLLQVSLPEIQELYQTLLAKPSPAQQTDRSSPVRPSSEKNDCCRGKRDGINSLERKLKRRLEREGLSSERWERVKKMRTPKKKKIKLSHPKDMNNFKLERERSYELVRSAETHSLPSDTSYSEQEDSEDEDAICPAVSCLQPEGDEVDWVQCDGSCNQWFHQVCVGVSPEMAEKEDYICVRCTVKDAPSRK
Method in brief: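 KDM5B (0.5 nM final) was preincubated with compound for 15 min at room temperature, then reacted with biotinylated peptide (3 nM final) for 25 min at room temperature.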

[3] = AlphaScreen, full length KDM5B 0.5 nM, biotinylated H3K4Me3 peptide 3 nM, 25 minutes at room temperature, read-out: KDM5B (IC50)

| Compound | IC50 [1] [nM] | IC50 [2, 3] [nM] | IC50 [2] [nM] |
| --- | --- | --- | --- |
| CC(C)c1c(O)nc(-n2ccnc2)nc1-c1cnn(CC(=O)N2CCCC(O)C2)c1 (stereo not shown) [Example 74, 2-{4-[6-Hydroxy-2-(1H-imidazol-1-yl)-5-(propan-2-yl)pyrimidin-4-yl]-1H-pyrazol-1-yl}-1-(3-hydroxy-piperidin-1-yl)ethan-1-one] | 1750 | 25 | – |
| CC(C)c1c(O)nc(-n2ccnc2)nc1-c1cnn(C(C)(C)C)c1 [Example 75, 6-(1-tert-Butyl-1H-pyrazol-4-yl)-2-(1H-imidazol-1-yl)-5-(propan-2-yl)pyrimidin-4-ol] | 1240 | 27 | – |
| CC(C)c1c(O)nc(-n2ccnc2)nc1-c1cccc(CNS(C)(=O)=O)c1 [Example 76, N-({3-[6-Hydroxy-2-(1H-imidazol-1-yl)-5-(propan-2-yl)pyrimidin-4-yl]phenyl}-methyl)methanesulfonamide] | 1860 | – | 29 |
| CC(C)c1c(O)nc(-n2ccnc2)nc1-c1cccc(CO)c1 [Example 77, 6-[3-(Hydroxymethyl)-phenyl]-2-(1H-imidazol-1-yl)-5-(propan-2-yl)pyrimidin-4-ol] | 2460 | – | 38 |
| CC(C)c1c(O)nc(-n2ccnc2)nc1-c1cccc(C#N)c1 [Example 79, 3-[6-Hydroxy-2-(1H-imidazol-1-yl)-5-(propan-2-yl)pyrimidin-4-yl]benzonitrile] | 5190 | – | 40 |
| CC(C)c1c(O)nc(-n2ccnc2)nc1-c1cnn(CCO)c1 [Example 80, 6-[1-(2-Hydroxyethyl)-1H-pyrazol-4-yl]-2-(1H-imidazol-1-yl)-5-(propan-2-yl)-pyrimidin-4-ol] | 3490 | – | 51 |
| CC(C)c1c(O)nc(-n2ccnc2)nc1-c1cnn(CC(C)(C)O)c1 [Example 81, 6-[1-(2-Hydroxy-2-methyl-propyl)-1H-pyrazol-4-yl]-2-(1H-imidazol-1-yl)-5-(propan-2-yl)pyrimidin-4-ol] | 4040 | – | 60 |
| CC(C)c1c(O)nc(-n2ccnc2)nc1-c1cccc(C(=O)N2CCOCC2)c1 [Example 82, 2-(1H-Imidazol-1-yl)-6-[3-(morpholine-4-carbonyl)-phenyl]-5-(propan-2-yl)-pyrimidin-4-ol] | 7970 | – | 73 |
| CC(C)c1c(O)nc(-n2ccnc2)nc1-c1ccccc1 [Example 83, 2-(1H-Imidazol-1-yl)-6-phenyl-5-(propan-2-yl)-pyrimidin-4-ol] | 2690 | – | 89 |
| Cc1noc(C)c1-c1nc(-n2ccnc2)nc(O)c1C(C)C [Example 84, 6-(Dimethyl-1,2-oxazol-4-yl)-2-(1H-imidazol-1-yl)-5-(propan-2-yl)pyrimidin-4-ol] | 10700 | – | 190 |
| CC(C)c1c(O)nc(-n2ccnc2)nc1-c1ccc(C(=O)NCC(=O)O)cc1 [Example 85, 2-({4-[6-Hydroxy-2-(1H-imidazol-1-yl)-5-(propan-2-yl)pyrimidin-4-yl]phenyl}-formamido)acetic acid] | 9710 | – | 240 |
| CC(C)Cc1ccc(-c2nc(-n3ccnc3)nc(O)c2C(C)C)cc1 [Example 86, 2-(1H-Imidazol-1-yl)-6-[4-(2-methylpropyl)phenyl]-5-(propan-2-yl)pyrimidin-4-ol] | 10000 | 1130 | – |
| CC(C)c1c(O)nc(-n2ccnc2-c2ncccn2)nc1Cl [Example 88, 6-Chloro-5-(propan-2-yl)-2-[2-(pyrimidin-2-yl)-1H-imidazol-1-yl]pyrimidin-4-ol] | 8260 | 563 | – |
| CC(C)c1c(O)nc(-n2ccnc2-c2ccccn2)nc1-c1cccc(CNS(C)(=O)=O)c1 [Example 89, N-({3-[6-Hydroxy-5-(propan-2-yl)-2-[2-(pyridin-2-yl)-1H-imidazol-1-yl]pyrimidin-4-yl]phenyl}methyl)methane-sulfonamide] | 20000 | 266 | – |
| CC(C)c1c(O)nc(-n2ccnc2)nc1-c1cnn(CC(=O)NCCCN(C)C)c1 [Example 90, N-[3-(Dimethylamino)-propyl]-2-{4-[6-hydroxy-2-(1H-imidazol-1-yl)-5-(propan-2-yl)pyrimidin-4-yl]-1H-pyrazol-1-yl}acetamide] | 410 | 4 | – |
| CC(C)c1c(O)nc(-n2ccnc2)nc1-c1cnn(CC(=O)NCCN(C)C)c1 [Example 91, N-[2-(Dimethylamino)ethyl]-2-{4-[6-hydroxy-2-(1H-imidazol-1-yl)-5-(propan-2-yl)pyrimidin-4-yl]-1H-pyrazol-1-yl}acetamide] | 634 | – | 5 |
| CC(C)c1c(O)nc(-n2ccnc2)nc1-c1cnn(CC(=O)NCCN2CCC(O)CC2)c1 [Example 92, 2-{4-[6-Hydroxy-2-(1H-imidazol-1-yl)-5-(propan-2-yl)pyrimidin-4-yl]-1H-pyrazol-1-yl}-N-[2-(4-hydroxypiperidin-1-yl)ethyl]-acetamide] | 525 | – | 6 |
| CC(C)c1c(O)nc(-n2ccnc2)nc1-c1cnn(CC(=O)NCCCCN(C)C)c1 [Example 93, N-[4-(Dimethylamino)butyl]-2-{4-[6-hydroxy-2-(1H-imidazol-1-yl)-5-(propan-2-yl)pyrimidin-4-yl]-1H-pyrazol-1-yl}acetamide] | 477 | – | 6 |
| CC(C)c1c(O)nc(-n2ccnc2)nc1-c1cnn(CC(=O)NCCN)c1 [Example 94, N-(2-Aminoethyl)-2-{4-[6-hydroxy-2-(1H-imidazol-1-yl)-5-(propan-2-yl)pyrimidin-4-yl]-1H-pyrazol-1-yl}-acetamide] | 340 | 6 | – |
| CNCCN(C)C(=O)Cn1cc(-c2nc(-n3ccnc3)nc(O)c2C(C)C)cn1 [Example 95, 2-{4-[6-Hydroxy-2-(1H-imidazol-1-yl)-5-(propan-2-yl)pyrimidin-4-yl]-1H-pyrazol-1-yl}-N-methyl-N-[2-(methylamino)ethyl]-acetamide] | 278 | – | 6 |
| CC(C)c1c(O)nc(-n2ccnc2)nc1-c1cnn(CC(=O)NCCN2CCC(F)(F)CC2)c1 [Example 96, N-[2-(4,4-Difluoropiperidin-1-yl)ethyl]-2-{4-[6-hydroxy-2-(1H-Imidazol-1-yl)-5-(propan-2-yl)pyrimidin-4-yl]-1H-pyrazol-1-yl}acetamide] | 779 | – | 7 |
| CC(C)c1c(O)nc(-n2ccnc2)nc1-c1cnn(CC(=O)NCC2CN(C)CCO2)c1 (stereo not shown) [Example 97, 2-{4-[6-Hydroxy-2-(1H-imidazol-1-yl)-5-(propan-2-yl)pyrimidin-4-yl]-1H-pyrazol-1-yl}-N-[(4-methyl-morpholin-2-yl)methyl]-acetamide] | 613 | – | 7 |
| CC(C)c1c(O)nc(-n2ccnc2)nc1-c1cnn(CC(=O)N2CCCC(N)C2)c1 (stereo not shown) [Example 98, 1-(3-Aminopiperidin-1-yl)-2-{4-[6-hydroxy-2-(1H-imidazol-1-yl)-5-(propan-2-yl)pyrimidin-4-yl]-1H-pyrazol-1-yl}ethan-1-one] | 505 | – | 8 |
| CC(C)c1c(O)nc(-n2ccnc2)nc1-c1cnn(CC(=O)N2CCN(C)CC2)c1 [Example 99, 2-{4-[6-Hydroxy-2-(1H-imidazol-1-yl)-5-(propan-2-yl)pyrimidin-4-yl]-1H-pyrazol-1-yl}-1-(4-methyl-piperazin-1-yl)ethan-1-one] | 455 | 10 | – |
| CC(C)c1c(O)nc(-n2ccnc2)nc1-c1cnn(CC(=O)NCCN2CCOCC2)c1 [Example 100, 2-{4-[6-Hydroxy-2-(1H-imidazol-1-yl)-5-(propan-2-yl)pyrimidin-4-yl]-1H-pyrazol-1-yl}-N-[2-(morpholin-4-yl)ethyl]-acetamide] | 1260 | – | 12 |
| CC(C)c1c(O)nc(-n2ccnc2)nc1-c1cnn(CC(=O)N2CCC(C#N)C2)c1 (stereo not shown) [Example 101, 1-(2-{4-[6-Hydroxy-2-(1H-imidazol-1-yl)-5-(propan-2-yl)pyrimidin-4-yl]-1H-pyrazol-1-yl}acetyl)-pyrrolidine-3-carbonitrile] | 881 | – | 12 |
